According to the METLIN SMRT retention time set (Domingo-Almenara et al. 2019):

assay: gradient 5% acetonitrile 3 min, to 50% in 2 min, to 85% in 15 min, held 3 min, 100 µL/min; conditions: column: Zorbax Extend-C18 2.1 x 50 mm; eluents: water / acetonitrile, 0.1% formic acid
Procedure, shortened: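 The system's dead and dwell volumes were 40 μL and 900 μL, with a Zorbax Extend-C18 column (2.1 × 50 mm, 1.8 μm) run at 100 μL/min in water and acetonitrile containing 0.1% formic acid each. Pure standards were analyzed in mixtures of ~100 molecules by HPLC–quadrupole time-of-flight mass spectrometry in positive and negative ionization mode. Retention time was assigned from computationally picked, manually inspected adduct peaks.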

SMILES	RP-LC retention time
CSc1nsc(NN)n1	647 s
CN1C(=O)CS(=O)C12CCN(C(=O)Nc1ccccc1)CC2 (stereo not given)	599 s
Cn1cnc(S(=O)(=O)N2CCC(Oc3ccc(-c4noc(C5CC5)n4)cc3)C2)c1 (stereo not given)	788 s
CCn1cnc(S(=O)(=O)N2CCC(C(=O)N3CCC(C)CC3)CC2)c1	678 s
Fc1ccc(OCc2nnc3sc(-c4cccc(F)c4)nn23)cc1	947 s
CN(C)CCn1nnc2cc(-c3noc(-c4cccc(Cl)c4)n3)ccc21	708 s
Clc1cc2c(nn1)Nc1ccccc1S2	892 s
CCn1cc(CCN2CCN(C(=O)C3CCCCC3)CC2)c2cccnc21	613 s
CC(C)n1c(=O)sc2cc(S(=O)(=O)N3CCC(C(=O)N4CCOCC4)CC3)ccc21	762 s
Fc1ccccc1-c1noc(-c2nc(-c3ccccc3F)no2)n1	1140 s
COc1ccccc1-c1nc2nccc(-c3ccncc3)n2n1	654 s
Cn1nc(C(=O)N2CCOCC2)c2c1CCN(C(=O)CCC(=O)NC1CCCCCC1)C2	652 s
O=C(Cn1ncc2c(c1=O)N(C1CC1)C(=O)CS2)NC1CCCCC1	672 s
CCC1CN2C=NC(N3CCN(C(=O)c4ccccc4)CC3)=CC2=N1 (stereo not given)	611 s
Cc1cc(C)n(-c2ccnc(N3CCC(C(=O)NCCC(C)C)CC3)n2)n1	836 s
O=C(Nc1ccc2c(c1)OCCO2)N1CCC2(CC1)CC(N1CCCC1)CCO2 (stereo not given)	586 s
O=C(NCCc1ccccc1)NC1CCCN(c2cc(-c3ccncc3)[nH]n2)C1 (stereo not given)	620 s
COc1cccc(Cn2ccn3nc(-c4ccc(OC)c(OC)c4)cc3c2=O)c1	916 s
COc1cc(Cl)ccc1C(=O)N(CC1CCOC1)C1CC1 (stereo not given)	803 s
Cc1noc(-c2nc(-c3ccc(N(C)C)cc3)no2)n1	1030 s
CC1=C(c2ccccc2)S(=O)(=O)N=C1N1CCCN(C(=O)NCc2ccco2)CC1	767 s

SMILES	RP-LC retention time
CCn1cnc2ccc(-c3noc(-c4ccoc4)n3)cc21	683 s
Cc1nn2c(CNS(=O)(=O)c3ccc(F)c(F)c3)c(-c3ccccc3)nc2s1	906 s
CCS(=O)(=O)N1CCC(Cc2ccc(CN3CCOCC3)cc2)CC1	622 s
Cc1cc(-c2cc(S(=O)(=O)N(CCN(C)C)Cc3cccs3)c(C)s2)n[nH]1	658 s
c1ccc(-c2nnc(-c3nc(NCCc4cccs4)c4ccccc4n3)o2)cc1	1040 s
COc1ccc(S(=O)(=O)N2CCC(Cc3nncn3C)CC2)cc1	657 s
COc1cc(Nc2nc(-c3nnn(-c4ccc(F)cc4)c3C)ns2)cc(OC)c1	990 s
COc1ccc(NC(=O)C2CCCN(c3cnc4nc(C)c(C)nc4c3)C2)c(C)c1 (stereo not given)	712 s
Cc1cccc(-n2c(=O)c3sccc3n(Cc3nc(-c4ccccc4Cl)no3)c2=O)c1	1010 s
CNC(=O)N1CCCC(c2nc(CCOCC3CCCC3)no2)C1 (stereo not given)	759 s
Cc1nn(-c2ccc(C(=O)N3CCN(c4ccccn4)CC3)cc2)c2c1C(=O)CCC2	574 s
CN1CCN(CCCNc2nnc(-c3nc(-c4ccc(F)cc4)no3)c3ccccc23)CC1	575 s
Cc1cc(C)cc(C(=O)N2CCCC(C(=O)NCCN3CCOCC3)C2)c1 (stereo not given)	619 s
O=C(NC(c1ccccc1)c1nnc(N2CCCC2)o1)c1ccccc1Cl (stereo not given)	867 s
CCCN1CCN(CCCNC(=O)CSc2nc3ccccc3n(C)c2=O)CC1	564 s
COC(=O)c1c(NC2CCCCC2)c2cccc(Cl)c2[nH]c1=O	876 s
O=C(NC(c1ccccc1)c1nnc(N2CCCC2)o1)c1ccc(F)c(Cl)c1 (stereo not given)	899 s
CCOC(=O)N1CCN(C(=O)CCC2CCN(c3cc(NC4CC4)ncn3)CC2)CC1	561 s
O=C(c1nnc(-c2ccc(S(=O)(=O)N3CCOCC3)cc2)o1)N1CCC2(CC1)OCCO2	730 s
Cc1cc(NC(=O)c2ccccc2-c2nc(-c3ccccc3)no2)no1	925 s
O=C(Nc1ccc2ncsc2c1)c1cc(Cl)sc1Cl	852 s

Other lines, results leading:

RP-LC retention time	SMILES
805 s	CC(C)n1nnc2cc(C(=O)N(C)CC(=O)Nc3cccc(Br)c3)ccc21
841 s	O=C(Cc1csc2nc(-c3ccccc3)cn12)NCCCc1ccccc1
833 s	CCc1nc2cc(N3CCC(C(=O)NCc4ccc(OC)cc4)CC3)cnc2nc1CC
643 s	CCOC(=O)C1=C(CN2CCN(c3ccccn3)CC2)NC(=O)NC1c1ccc(Cl)cc1 (stereo not given)
909 s	CCc1cc(C(=O)NCc2ccc(F)cc2)nc2ccnn12
811 s	CCn1nccc1C(=O)N1CC(Oc2cccc(-c3nc(C)no3)c2)C1
770 s	Cc1ccc(-c2nc3ccccn3c2CCC(=O)Nc2ccc(Br)cc2C)cc1
712 s	Cn1nc(C(=O)Nc2cccc(-c3nnc4n3CCCC4)c2)c2ccccc21
661 s	CCc1noc2nc(C)n(CC(=O)NCc3ccc(OC(C)C)cc3)c(=O)c12
685 s	COC(=O)[C@@H]1Cc2c([nH]c3ccccc23)C(c2ccccc2C)N1 (stereo not given in full)
596 s	CCc1ccc(C2=C(C)C(N3CCC(NC(=O)NC(C)C)CC3)=NS2(=O)=O)cc1
689 s	Cc1cc(=O)n(CC(=O)Nc2cc(F)ccc2C)c(N2CCOCC2)n1
637 s	Cc1cc(C)cc(N2CCC(NC(=O)Cc3ccsc3)C2=O)c1 (stereo not given)
893 s	COc1ccc(C(C)NC(=O)c2nnc(-c3ccc(S(=O)(=O)N(C)C)cc3)o2)cc1 (stereo not given)
1020 s	Cc1ccc2c(c1)N(Cc1nc(-c3ccc4c(c3)OCO4)no1)C(=O)CO2
712 s	O=C(COc1ccc(F)cc1)Nc1ccc2c(c1)N(C(=O)c1ccco1)CCC2
615 s	COc1ccc(OC)c(S(=O)(=O)N2CCCC(C(=O)NCc3ccccn3)C2)c1 (stereo not given)
770 s	CC(=O)N1CCc2cc(N3CC(C(=O)Nc4ccc(Br)cc4)CC3=O)ccc21 (stereo not given)
968 s	CCCCN(C)C(=O)c1cnc(-c2ccc(C)cc2)nc1-c1ccncc1
805 s	O=C(Nc1ccc(F)cc1)N1CCC(n2cnc3c(Cl)cccc3c2=O)CC1
868 s	Cc1c(C)n(-c2ccc(Cl)cc2)c2ncn(CC(=O)NCc3ccco3)c(=O)c12
1020 s	Cc1ccc(-c2noc(C3CCCN3C(=O)NC3CCCCC3)n2)cc1 (stereo not given)
1020 s	Cc1ccccc1CC(=O)N1CCc2cc(-c3ccno3)ccc21
758 s	O=C(NCc1ccco1)c1cc2c(s1)CCN(C(=O)c1ccccc1)C2

RP-LC retention time	SMILES
575 s	COc1ccccc1N1CCN(CCCNc2cc(C(=O)O)c3ccccc3n2)CC1
658 s	CCN(CC)CCNC(=O)C1CCN(C2=NS(=O)(=O)C(c3ccc(Cl)cc3)=C2C)CC1
823 s	O=C(CN1C(=O)C2CCCN2C(=O)c2ccccc21)c1ccc(Br)cc1 (stereo not given)
924 s	CC(Cc1ccco1)NC(=O)CCCn1c(=O)c2cccn2c2ccc(Br)cc21 (stereo not given)
873 s	CCc1onc(C)c1C1CCCN1C(=O)Nc1ccc(Cl)cc1 (stereo not given)
921 s	Cc1nn(-c2cc(N3CCCCC3)ncn2)c(C)c1CCC(=O)Nc1ccc2c(c1)OCO2
616 s	CCN(Cc1ccccc1)Cc1cc(=O)n2cc(Cl)ccc2n1
662 s	Cc1ccc(CNC(=O)C2(C)Cn3nc(C(=O)N4CCOCC4)cc3C(=O)N2C)cc1 (stereo not given)
866 s	C[C@H]1CN(C(=O)Nc2ccc3c(c2)CCC3)C[C@@H]1c1nc(-c2cccnc2)no1
796 s	CN1C(=O)c2cccnc2Sc2cc(NC(=O)c3ccc(F)cc3Cl)ccc21
618 s	Cc1ccc2c(C(=O)Nc3ccc(N4CCOCC4)cc3)cc(NC(=O)C(C)C)cc2n1
748 s	CCCC(=O)Nc1ccc2c(c1)CN(C(=O)Cc1ccc(C)cc1)C(C(=O)N(C)C)C2 (stereo not given)
666 s	Cc1ccc(C(=O)NCCc2nc3cccnc3n2C(C)C)cc1
774 s	CC(=O)N1CCc2ccc(NC(=O)c3cccc(Br)c3)cc21
755 s	CCOc1ccc(CNC(=O)Cn2cnc3onc(C)c3c2=O)cc1
882 s	Cc1ccc2[nH]cc(CCN3CC(C(=O)Nc4ccc(Cl)cc4)CC3=O)c2c1 (stereo not given)
732 s	CCOc1ccc(CNC(=O)c2cnc(OC)nc2)cc1
592 s	COc1ccc2[nH]c(=O)c(CCC(=O)NCCCN3CCCC3=O)cc2c1
863 s	Cc1cccc(Nc2nc(C(=O)NCCc3cccs3)nc3ccccc23)c1
860 s	CCOC(=O)c1c(C)[nH]c(C(=O)N2CCC(C(C)C(=O)NCc3ccc(OCC)cc3)CC2)c1C (stereo not given)
897 s	O=C(Cc1ccc(F)cc1)Nc1ccccc1NC(=O)c1cccc(Cl)c1
946 s	Cc1ccc(S(=O)(=O)N2C[C@@H]3C[C@H]2C[C@@H]3NC(=O)c2ccccc2)cc1Cl
821 s	CCc1nc(OCC(=O)Nc2cc(OC)ccc2OC)c2ccccc2n1
1420 s	COc1ccc(-c2ccnn2-c2ccc(SCc3ccc(C)cc3)nn2)cc1
